Each structure is given as a SMILES string. Structures can show the parent of a compound that is named as a salt.

T1 sequence (Q9H3N8 whole entry): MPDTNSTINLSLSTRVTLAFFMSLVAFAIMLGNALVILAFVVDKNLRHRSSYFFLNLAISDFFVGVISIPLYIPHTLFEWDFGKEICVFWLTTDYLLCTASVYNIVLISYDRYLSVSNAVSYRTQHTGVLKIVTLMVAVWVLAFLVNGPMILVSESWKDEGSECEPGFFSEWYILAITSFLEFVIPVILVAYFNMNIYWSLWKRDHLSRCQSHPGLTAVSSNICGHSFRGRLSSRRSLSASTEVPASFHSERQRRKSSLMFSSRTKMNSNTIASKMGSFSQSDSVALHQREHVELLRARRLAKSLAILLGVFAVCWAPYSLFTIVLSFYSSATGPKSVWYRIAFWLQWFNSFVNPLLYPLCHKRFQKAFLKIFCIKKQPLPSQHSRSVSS

One test concerns the target T1, human histamine H4 receptor (Homo sapiens, UniProt Q9H3N8).
T1 construct: expressed in transfected cells; host or cells: SK-N-MC cells or COS7 cells, transiently transfected; cell membranes used
The test is described as follows: Binding Assay on Recombinant Human Histamine H4 Receptor.
Details: not given
On the procedure: Binding Assay on Recombinant Human Histamine H4 Receptor
SK-N-MC cells or COS7 cells were transiently transfected with pH4R and grown in 150 cm^2 tissue culture dishes. Cells were washed with saline solution, scraped with a cell scraper and collected by centrifugation (1000 rpm, 5 min). Cell membranes were prepared by homogenization of the cell pellet in 20 mM Tris-HCl with a polytron tissue homogenizer for 10 sec at high speed. Homogenate was centrifuged at 1000 rpm for 5 min at 4° C. […] The final pellet was resuspended in 50 mM Tris-HCl. Cell membranes were incubated with ^3H-histamine (5-70 nM) in the presence or absence of excess histamine (10,000 nM). […] Membranes were harvested by rapid filtration over Whatman GF/C filters and washed 4 times with ice-cold 50 mM Tris HCl. Filters were then dried, mixed with scintillant and counted for radioactivity. SK-N-MC or COS7 cells expressing human histamine H4 receptor were used to measure the affinity of binding of other compounds and their ability to displace ^3H-ligand binding by incubating the above-described reaction in the presence of various concentrations of inhibitor or compound to be tested.
Regarding `Nc1nc(N2CC3CCNC3C2)c2oc3ccc(F)cc3c2n1` (centres unmarked) [Example 71, 8-Fluoro-4-(hexahydro-pyrrolo[3,4-b]pyrrol-5-yl)-benzo[4,5]furo[3,2-d]pyrimidin-2-ylamine trifluoroacetic acid salt], the Ki came to 7.8 nM.

As for `Nc1nc(N2C[C@H]3C[C@@H]2CN3)c2oc3ccc(Cl)cc3c2n1` [Example 81, (R,R)-8-Chloro-4-(2,5-diaza-bicyclo[2.2.1]hept-2-yl)-benzo[4,5]furo[3,2-d]pyrimidin-2-ylamine trifluoroacetic acid salt], the Ki turned out to be 100 nM.

On to `Nc1nc(N2CCN3CCCC3C2)c2oc3ccc(Br)cc3c2n1` (centres unmarked) [Example 20, 8-Bromo-4-(hexahydro-pyrrolo[1,2-a]pyrazin-2-yl)-benzo[4,5]furo[3,2-d]pyrimidin-2-ylamine trifluoroacetic acid salt], for which the Ki is 4.7 nM.

Staying with this test, now noted: competition binding with 3H-histamine (5 nM), membranes of SK-N-MC or COS7 cells expressing human H4 receptor; Cheng-Prusoff, KD 5 nM; average of results obtained; read-out: Ki.
On to `CN[C@@H]1CCN(c2nc(N)nc3c2oc2ccc(C(F)(F)F)cc23)C1` [Example 140, (R)-4-(3-Methylamino-pyrrolidin-1-yl)-8-trifluoromethyl-benzo[4,5]furo[3,2-d]pyrimidin-2-ylamine trifluoroacetic acid salt], for which the Ki turned out to be 1 nM.

On to `CN1CCN(c2nc(NC3CC3)nc3c2oc2ccc(Cl)cc23)CC1` [Example 119, [8-Chloro-4-(4-methyl-piperazin-1-yl)-benzo[4,5]furo[3,2-d]pyrimidin-2-yl]-cyclopropyl-amine], for which the Ki is 350 nM.

Turning to `CC(C)N1CCN(c2nc(N)nc3c2oc2ccc(Cl)cc23)CC1` [Example 34, 8-Chloro-4-(4-isopropyl-piperazin-1-yl)-benzo[4,5]furo[3,2-d]pyrimidin-2-ylamine trifluoroacetic acid salt], the inhibition constant Ki was determined as 240 nM.

On to `COc1ccc2oc3c(N4C[C@H]5CCCN[C@H]5C4)nc(N)nc3c2c1` (relative stereo) [Example 105, (cis)-8-Methoxy-4-(octahydro-pyrrolo[3,4-b]pyridin-6-yl)-benzo[4,5]furo[3,2-d]pyrimidin-2-ylamine trifluoroacetic acid salt], for which the Ki came to 14 nM.

For `CN[C@@H]1CCN(c2nc(N)nc3c2sc2cc(Br)ccc23)C1` [Example 56, (R)-7-Bromo-4-(3-methylamino-pyrrolidin-1-yl)-benzo[4,5]thieno[3,2-d]pyrimidin-2-ylamine trifluoroacetic acid salt], the Ki is 25 nM.

As for `CN(C)C1CCN(c2nc(N)nc3c2oc2c(Cl)cc(Cl)cc23)C1` (centres unmarked) [Example 35, 6,8-Dichloro-4-(3-dimethylamino-pyrrolidin-1-yl)-benzo[4,5]furo[3,2-d]pyrimidin-2-ylamine trifluoroacetic acid salt], the Ki amounted to 380 nM.

For the compound `CN1CCN(c2nc(NCCO)nc3c2oc2ccc(Cl)cc23)CC1` [Example 115, 2-[8-Chloro-4-(4-methyl-piperazin-1-yl)-benzo[4,5]furo[3,2-d]pyrimidin-2-ylamino]-ethanol], the Ki was 4.3 nM.

For `CN1CCN(c2nc(N)nc3c2sc2ccc(Cl)cc23)CC1` [Example 67, 8-Chloro-4-(4-methyl-piperazin-1-yl)-benzo[4,5]thieno[3,2-d]pyrimidin-2-ylamine trifluoroacetic acid salt], the Ki turned out to be 14 nM.

`CN[C@@H]1CCN(c2nc(N)nc3c2oc2cccc(OC)c23)C1` [Example 100, (R)-9-Methoxy-4-(3-methylamino-pyrrolidin-1-yl)-benzo[4,5]furo[3,2-d]pyrimidin-2-ylamine trifluoroacetic acid salt]: the inhibition constant (Ki) turned out to be 20 nM.

Turning to `Nc1nc(N2CCC(N)C2)c2oc3c(Cl)cc(Cl)cc3c2n1` (centres unmarked) [Example 4, 4-(3-Amino-pyrrolidin-1-yl)-6,8-dichloro-benzo[4,5]furo[3,2-d]pyrimidin-2-ylamine trifluoroacetic acid salt], the Ki amounted to 31 nM.

Take `COc1ccc2oc3c(N4C[C@@H]5C[C@H]4CN5)nc(N)nc3c2c1` [Example 113, (S,S)-4-(2,5-Diaza-bicyclo[2.2.1]hept-2-yl)-8-methoxy-benzo[4,5]furo[3,2-2]pyrimidin-2-ylamine trifluoroacetic acid salt]: the Ki came out at 420 nM.

With `CN1CCN(c2nc(NCCCN)nc3c2oc2ccc(Cl)cc23)CC1` [Example 122, N^1-[8-Chloro-4-(4-methyl-piperazin-1-yl)-benzo[4,5]furo[3,2-d]pyrimidin-2-yl]-propane-1,3-diamine], the Ki is 300 nM.

Take `CN1CCN(c2nc(N)nc3c2sc2cc(C(F)(F)F)ccc23)CC1` [Example 54, 4-(4-Methyl-piperazin-1-yl)-7-trifluoromethyl-benzo[4,5]thieno[3,2-d]pyrimidin-2-ylamine trifluoroacetic acid salt]: the Ki was determined as 440 nM.

On to `CNC1CCN(c2nc(N)nc3c2oc2ccc(Cl)cc23)C1` (centres unmarked) [Example 12, 8-Chloro-4-(3-methylamino-pyrrolidin-1-yl)-benzo[4,5]furo[3,2-d]pyrimidin-2-ylamine], for which the inhibition constant (Ki) is 0.86 nM.

Take `Nc1nc(N2CCNCC2)c2oc3ccc(C(F)(F)F)cc3c2n1` [Example 142, 4-piperazin-1-yl-8-trifluoromethyl-benzo[4,5]furo[3,2-d]pyrimidin-2-ylamine trifluoroacetic acid salt]: the Ki was 13 nM.

For the compound `CN1CCN(c2nc(N)nc3c2oc2ccc(Cl)c(Cl)c23)CC1` [Example 101, 8,9-Dichloro-4-(4-methyl-piperazin-1-yl)-benzo[4,5]furo[3,2-d]pyrimidin-2-ylamine trifluoroacetic acid salt], the Ki was found to be 7.8 nM.

Take `Nc1nc(N2C[C@@H]3C[C@H]2CN3)c2oc3ccccc3c2n1` [Example 33, (S,S)-4-(2,5-Diaza-bicyclo[2.2.1]hept-2-yl)-benzo[4,5]furo[3,2-d]pyrimidin-2-ylamine trifluoroacetic acid salt]: the Ki was determined as 200 nM.

Turning to `CN[C@H]1CCN(c2nc(N)nc3c2oc2ccc(Cl)cc23)C1` [Example 17, (S)-8-Chloro-4-(3-methylamino-pyrrolidin-1-yl)-benzo[4,5]furo[3,2-d]pyrimidin-2-ylamine], the Ki amounted to 2.1 nM.

Take `CN(C)[C@H]1CCCN(c2nc(N)nc3c2oc2ccc(Cl)cc23)C1` [Example 75, (S)-8-Chloro-4-(3-dimethylamino-piperidin-1-yl)-benzo[4,5]furo[3,2-d]pyrimidin-2-ylamine trifluoroacetic acid salt]: the Ki turned out to be 650 nM.

Take `Nc1nc(N2C[C@@H]3C[C@H]2CN3)c2oc3ccc(F)c(F)c3c2n1` [Example 149, (S,S)-4-(2,5-Diaza-bicyclo[2.2.1]hept-2-yl)-8,9-difluoro-benzo[4,5]furo[3,2-d]pyrimidin-2-ylamine trifluoroacetic acid salt]: the Ki was > 10000 nM.

For `Nc1nc(N2CCNCC2)c2oc3ccc(F)c(F)c3c2n1` [Example 146, 8,9-Difluoro-4-piperazin-1-yl-benzo[4,5]furo[3,2-d]pyrimidin-2-ylamine trifluoroacetic acid salt], the Ki amounted to 1280 nM.

On to `CC1CN(c2nc(N)nc3c2oc2ccc(Cl)cc23)CC(C)N1` (mixture of isomers) [Example 128, 8-Chloro-4-(3,5-dimethyl-piperazin-1-yl)-benzo[4,5]furo[3,2-d]pyrimidin-2-ylamine trifluoroacetic acid salt], for which the Ki is > 10000 nM.

On to `CN1CCN(c2nc(N)nc3c2oc2ccc(F)c(F)c23)CC1` [Example 145, 8,9-Difluoro-4-(4-methyl-piperazin-1-yl)-benzo[4,5]furo[3,2-d]pyrimidin-2-ylamine trifluoroacetic acid salt], for which the Ki was determined as 160 nM.

In the case of `CN[C@H]1CCN(c2nc(N)nc3c2sc2cc(Br)ccc23)C1` [Example 57, (S)-7-Bromo-4-(3-methylamino-pyrrolidin-1-yl)-benzo[4,5]thieno[3,2-d]pyrimidin-2-ylamine trifluoroacetic acid salt], the Ki came to 150 nM.

For the compound `C[C@H]1CNCCN1c1nc(N)nc2c1oc1ccc(Cl)cc12` [Example 131, (S)-8-Chloro-4-(2-methyl-piperazin-1-yl)-benzo[4,5]furo[3,2-d]pyrimidin-2-ylamine trifluoroacetic acid salt], the Ki amounted to 60 nM.

`Nc1nc(N2CCN3CCCCC3C2)c2oc3c(Cl)cc(Cl)cc3c2n1` (centres unmarked) [Example 37, 6,8-Dichloro-4-(octahydro-pyrido[1,2-a]pyrazin-2-yl)-benzo[4,5]furo[3,2-d]pyrimidin-2-ylamine trifluoroacetic acid salt]: the Ki was 790 nM.

Regarding `CN[C@@H]1CCN(c2nc(N)nc3c2oc2cccc(Cl)c23)C1` [Example 152, (R)-9-Chloro-4-(3-methylamino-pyrrolidin-1-yl)-benzo[4,5]furo[3,2-d]pyrimidin-2-ylamine trifluoroacetic acid salt], the Ki was found to be 87 nM.

As to `COc1ccc2oc3c(N4CCN(C)CC4)nc(NCCO)nc3c2c1` [Example 118, 2-[8-Methoxy-4-(4-methyl-piperazin-1-yl)-benzo[4,5]furo[3,2-d]pyrimidin-2-ylamino]-ethanol], the Ki is 200 nM.

For the compound `COc1cccc2oc3c(N4CCNCC4)nc(N)nc3c12` [Example 86, 9-Methoxy-4-piperazin-1-yl-benzo[4,5]furo[3,2-d]pyrimidin-2-ylamine trifluoroacetic acid salt], the Ki was 47 nM.

The term Ki denotes a measure of affinity in units of concentration, obtained from inhibition or displacement.

For the origin of these results see patent publication US8030321B2, “Benzofuro- and benzothienopyrimidine modulators of the histamine H4 receptor” (Janssen Pharmaceutica, NV, priority 2006, dated 2011).
